Assay [1] deals with T1, Myeloperoxidase (Homo sapiens, UniProt P05164).
T1 sequence (P05164 whole entry): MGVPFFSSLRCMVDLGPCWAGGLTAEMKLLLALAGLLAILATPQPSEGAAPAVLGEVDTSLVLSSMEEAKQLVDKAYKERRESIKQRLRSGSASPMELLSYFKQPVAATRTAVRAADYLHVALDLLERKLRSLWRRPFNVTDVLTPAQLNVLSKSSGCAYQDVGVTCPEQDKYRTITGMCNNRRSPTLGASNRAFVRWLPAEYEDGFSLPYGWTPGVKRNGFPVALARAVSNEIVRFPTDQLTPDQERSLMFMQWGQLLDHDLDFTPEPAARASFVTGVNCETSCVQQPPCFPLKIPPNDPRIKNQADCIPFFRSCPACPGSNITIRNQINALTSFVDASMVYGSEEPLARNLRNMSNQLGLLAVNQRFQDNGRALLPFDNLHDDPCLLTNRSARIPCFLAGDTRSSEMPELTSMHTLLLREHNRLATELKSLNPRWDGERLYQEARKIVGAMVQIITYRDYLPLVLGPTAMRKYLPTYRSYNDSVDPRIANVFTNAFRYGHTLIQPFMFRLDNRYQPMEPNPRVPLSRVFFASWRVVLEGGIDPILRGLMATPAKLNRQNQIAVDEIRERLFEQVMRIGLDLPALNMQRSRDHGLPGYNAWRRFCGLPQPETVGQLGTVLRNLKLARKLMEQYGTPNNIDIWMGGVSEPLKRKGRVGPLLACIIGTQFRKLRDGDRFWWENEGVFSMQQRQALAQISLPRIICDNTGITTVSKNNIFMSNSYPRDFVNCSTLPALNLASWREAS
The assay can be described thus: Inhibition of recombinant human myeloperoxidase.

The target of assay [2] is T1, Myeloperoxidase. The assay can be described thus: Inhibition of myeloperoxidase.
Assay [3] has as its target T2, Myeloperoxidase (Homo sapiens) (UniProt P05164).
T2 sequence (whole entry): T1 sequence (P05164 whole entry)
The assay can be described thus: Inhibition of human recombinant myeloperoxidase-mediated Apo B-100 oxidation on LDL at 50 uM after 5 min by ELISA. For orientation: ELISA stands for enzyme-linked immunosorbent assay.

Assay [4] has as its target T2, Myeloperoxidase (Homo sapiens). The assay is described as follows: Inhibition of human recombinant myeloperoxidase-mediated Apo B-100 oxidation on LDL at 5 uM after 5 min by ELISA.
Assay [5] has the same target. The assay can be described thus: Inhibition of human recombinant myeloperoxidase assessed as compound 1 formation by spectrophotometry in presence of H2O2.
Assay [6] has the same target. The assay is described as follows: Inhibition of human recombinant myeloperoxidase-mediated Apo B-100 oxidation on LDL at 1.25 uM after 5 min by ELISA.
In assay [7] the target is T1, Myeloperoxidase. The assay can be described thus: Inhibition of recombinant human myeloperoxidase assessed as taurine chloramine production after 5 mins by spectrophotometry in presence of H2O2. The assay is classed as single protein.
In assay [8] the target is T2, Myeloperoxidase (Homo sapiens). The assay can be described thus: Inhibition of human recombinant myeloperoxidase assessed as compound 2 formation by spectrophotometry in presence of H2O2.
Assay [9] shares this target. The assay can be described thus: Ratio of apparent rate constant of compound 1 formation to apparent rate constant of compound 2 formation for human recombinant myeloperoxidase.
Assay [10] deals with T1, Myeloperoxidase. The assay is described as follows: Binding affinity to recombinant human myeloperoxidase.

This is an account of results in ChEMBL document CHEMBL2169758, “Evaluation of new scaffolds of myeloperoxidase inhibitors by rational design combined with high-throughput virtual screening” (J Med Chem, 2012).

pIC50, pKd: −log10 of the molar value. Calls of active or inactive are those of the source. The rule behind the calls is not given here.

In the case of `CS(=O)(=O)Nc1ccc([N+](=O)[O-])cc1Oc1ccccc1` [NIMESULIDE], the pIC50 at Myeloperoxidase [1] was 5.68.
`CC(C)CN1C(=O)C2=NC=NC2=NC1=S`: at Myeloperoxidase [2], the pIC50 is 6.06.
`COc1ccc2cc(CN(Cc3ccc(F)cc3)C(=S)NCCCN(C)C)c(O)nc2c1`: the inhibition entry in [3], in [4] and in assay [6] was “inactive” each time. In addition, in assay [5], the Rate constant for compound I formation stood at 9.36 ×10⁵ /M/s.
Turning to `NC1=Nc2nc3ccccc3n2C(c2ccc(OCC(=O)O)cc2)N1` (stereo not given), the inhibition result in assay [3], in [4] and in [6] was “inactive” throughout. Besides, the Rate constant for compound I formation in assay [5] was determined as 6.8 ×10⁵ /M/s. At Myeloperoxidase [7], the pIC50 was 5.43.
Compound `O=c1c(O)c(-c2ccc(O)c(O)c2)oc2cc(O)cc(O)c12` [QUERCETIN] showed a pIC50 against Myeloperoxidase [2] of 5.90.
On to `Oc1ccccc1CN1CCCN(Cc2ccccc2O)C1`, for which the inhibition in assay [3] is 11%; in assay [4], 4.5%; in assay [6], 62%. Further, the Rate constant for compound I formation in assay [5] turned out to be 5.1 ×10⁶ /M/s. For the same compound, the pIC50 at Myeloperoxidase [7] is 6.30.
With `Cn1c(=O)[nH]c(=O)c2c1nc(NCCN)n2CCCOc1ccccc1`, the inhibition amounted to 6% in assay [3], 2.6% in assay [4] and 11% in [6]. Besides, the Activity in assay [8] was 210 M⁻¹ s⁻¹. In [5], the Rate constant for compound I formation came to 5.1 ×10⁶ /M/s. The pIC50 at Myeloperoxidase [7] is 6.34. Besides, in assay [9], the Ratio amounted to 24300.
Consider `O=C(NO)c1ccccc1O` [SALICYLHYDROXAMIC ACID], for which the pKd on Myeloperoxidase [10] is 5.70. Besides, the pIC50 on Myeloperoxidase [1] is 5.52.
`NCCc1c[nH]c2ccc(F)cc12`: the pIC50 at Myeloperoxidase [1] is 6.10.
Consider `COc1cc(OC)c(C2N=C(N)Nc3nc4ccccc4n32)cc1OC` (stereo not given), for which the inhibition entry in assay [3], in [4] and in [6] was “inactive” in each case. In assay [8], the Activity was 1.1 M⁻¹ s⁻¹. Besides, the Rate constant for compound I formation in assay [5] is 1.4 ×10⁶ /M/s. The pIC50 at Myeloperoxidase [7] is 5.46. Moreover, the Ratio in assay [9] worked out at 1.27e+06.
With `COc1ccc2cc(CN(Cc3ccc(F)cc3)C(=S)NCCCN(C)C)c(=O)[nH]c2c1`, the pIC50 at Myeloperoxidase [7] is 5.42.
For the compound `COc1ccccc1N1CCN(C(=O)CSc2ncccc2-c2nc3ccccc3[nH]2)CC1`, the inhibition result in assay [3], in assay [4] and in assay [6] was “inactive” in each case. For the same compound, the pIC50 at Myeloperoxidase [7] was 5.21.
Consider `C(=N\Nc1nc2ccccc2[nH]1)/c1c[nH]c2ccccc12`, for which the inhibition entry in [3], in assay [4] and in assay [6] was “inactive” throughout. Further, in assay [5], the Rate constant for compound I formation turned out to be 4.1 ×10⁷ /M/s. The pIC50 at Myeloperoxidase [7] was 4.92.
With `COc1cc(-c2nc(-c3ccccc3)c(-c3ccccc3)[nH]2)ccc1OCC(=O)O`, the inhibition result in assay [3], in assay [4] and in assay [6] was “inactive” in each case. The Rate constant for compound I formation in assay [5] is 1.9 ×10⁶ /M/s. Moreover, on Myeloperoxidase [7], the pIC50 was 6.01.
The compound `CCC1=CCCc2cc(OC)ccc21` gave a pIC50 on Myeloperoxidase [2] of 5.52.

By pIC50 is commonly meant the IC50 on a negative log10 scale, so that one unit is a factor of ten. In general, inhibition refers to the relative decrease from the control value, in per cent. Broadly, the pKd is the negative decadic logarithm of the Kd, by convention in mol/L.
